Source: patent US9125407B2, “Compositions comprising an aryl pyrazole and a substituted imidazole, methods and uses thereof” (MERIAL LIMITED, priority 2011, dated 2015)

Tests used:
Rhipicephalus sanguineus [1] = assay: Tick mortality in combination with fipronil (25 ppm), 100% mortality at 6 hours; details: dose of compound combined with fipronil 25 ppm producing 100% mortality in 6 hours
Description: Observations were made at 4 h and 24 h post-treatment.
The compounds were then combined with fipronil (25 ppm) and tested for 100% mortality at 6 hours.

Rhipicephalus sanguineus [2] = assay: Tick contact behavioral assay (TCBA), excitatory response in glass vials; details: 24 h post-treatment
Description: Another screening method used to test compounds of the present invention is the tick contact behavioral assay (TCBA). Compounds that elicit excitatory activity in ticks should increase their motility, thus increasing the parasite's chances of encountering fipronil if fipronil is present.
The TCBA was performed on Rhipicephalus sanguineus in glass vials. Briefly, a paper disc is treated with the desired amount of test compound and placed into the vial with approximately ten ticks. The ticks are observed for excitatory response but are not otherwise stimulated for evaluation.
From these observations, an EC50 for excitatory response is established. Observations were made at 4 h and 24 h post-treatment. […]

[3] = pH about 5.0 to about 6.0; cited from earlier work
[4] = 14C radiolabeled drug, spot-on, beagle dogs; cited from earlier work

Row | Compound | TCBA Assay EC50 (@ 24 h, ppm) (Rhipicephalus sanguineus [2]) [ppm] | Fipronil combination (25 ppm) (6 h mortality) Dose (ppm) (Rhipicephalus sanguineus [1]) | stability at pH of about 5.0 to about 6.0 [3] | time persistently detected in whole skin after treatment [4]
1 | Cc1cccc2c1C(c1ncc[nH]1)CC2 (centres unmarked) [1H-imidazole, 2-(2,3-dihydro-7-methyl-1H-inden-1-yl)] | 6 |  |  | 
2 | Cc1ccc(/N=C/N(C)/C=N/c2ccc(C)cc2C)c(C)c1 [Amitraz, amitraz] | 1.6 | 12.5 | degrade | 
3 | N#Cc1nn(-c2c(Cl)cc(C(F)(F)F)cc2Cl)c(N)c1[S+]([O-])C(F)(F)F (centres unmarked) [fipronil, 5-amino-3-cyano-1-(2,6-dichloro-4-trifluoromethylphenyl)-4-trifluoromethylsulfinylpyrazole] |  |  |  | up to 56 days

Now from value to compound, other results behind:

Row | TCBA Assay EC50 (@ 24 h, ppm) (Rhipicephalus sanguineus [2]) [ppm] | Compound | Fipronil combination (25 ppm) (6 h mortality) Dose (ppm) (Rhipicephalus sanguineus [1]) | stability at pH of about 5.0 to about 6.0 [3] | time persistently detected in whole skin after treatment [4]
4 | 5 | Cc1cccc(C(C)c2ncc[nH]2)c1C (centres unmarked) [demiditraz] | 12.5 |  | 
5 | 6 | Cc1cccc2c1CCCC2c1ncc[nH]1 (centres unmarked) [2-(5-methyl-1,2,3,4-tetrahydronaphthalen-1-yl)-1H-imidazole] | 25 |  | 
6 | 6 | Cc1cccc2c1CCC2c1ncc[nH]1 (centres unmarked) [ML-449, 1H-imidazole, 2-(2,3-dihydro-4-methyl-1H-inden-1-yl)] | 25 |  | 
